Data reported in patent US20230165835A1, “METHODS OF TREATING ACUTE LUNG INJURY USING EBSELEN” (SOUND PHARMACEUTICALS INC., priority 2020, published 2023).
Entries after “also recorded” stand apart in the source; their conditions may differ. Read-outs that look alike come from different tables or passages of the source.

Key:
[1] = molecular target: COVID-19 virus main protease (M^pro) (Severe acute respiratory syndrome coronavirus 2, UniProt P0DTD1); settings: Jin et al.; cited from earlier work
[2] = Study 6.3: ebselen in mild to moderate COVID-19; assay type: in vivo, human; settings: 400 to 600 mg BID for 14 to 21 days
[3] = Solubility in aqueous solutions; settings: 25° Celsius
SARS-CoV-2 = test: Reduction of SARS-CoV-2 viral load in Vero E6 cells (image based assay of Jin et al.); assay type: cell-based
18 common microbes = test: MIC assays against 18 common microbes (interference); assay type: cell-based; settings: to support testing in CF patients
From the text: (§1) We have studied the efficacy of ebselen in a number of indications including the treatment of Meniere's Disease, and in the treatment of ototoxicity in cystic fibrosis (CF) patients. Ebselen has an anti-inflammatory mechanism of action that is distinct from that of a classic corticosteroid immunosuppressive agent which can be beneficial in the treatment of respiratory viral infections. […] In addition, our Phase 2b study in cystic fibrosis (CF) patients with Pseudomonas is continuing without any safety issues. […] Our results and analysis in these other clinical studies supports the use of ebselen in the subject methods of treating or preventing conditions associated with respiratory viral infections described herein.
(§2) The anti-inflammatory mechanism of action of ebselen is unique and distinct over that of a classic corticosteroid immunosuppressive agent. […] In addition, our Phase 2b study in CF patients with Pseudomonas is continuing without any safety issues.

[4] = Study 6.4: ebselen in moderate COVID-19; assay type: in vivo, human; settings: 400 or 800 mg BID for 7 days
[5] = Cystic fibrosis trial: clinical chemistry, nephrotoxicity, tolerability; assay type: in vivo, human; settings: for Serum Creatinine Mean (SD): baseline 0.77 (0.24); for Blood Urea Nitrogen Mean (SD): baseline 12.81 (4.73); for Bilirubin (Total) / Creatinine / Magnesium / Phosphorus / Albumin / Potassium / Uric Acid / Total Protein / Calcium / BUN / AST/SGOT / ALT/SGPT / GGT / Bicarbonate / Triglyceride / Alkaline Phosphatase / Glucose / Chloride / Total Cholesterol / Sodium / LDH: ITT Population; for Bilirubin (Total): Screening/Baseline 0.46; for Creatinine: Screening/Baseline 0.77; for Magnesium: Screening/Baseline 2.11; for Phosphorus: Screening/Baseline 3.62; for Albumin: Screening/Baseline 3.80; for Potassium: Screening/Baseline 4.33; for Uric Acid: Screening/Baseline 5.63; for Total Protein: Screening/Baseline 7.17; for Calcium: Screening/Baseline 8.84; for BUN: Screening/Baseline 12.81; for AST/SGOT: Screening/Baseline 16.86; for ALT/SGPT: Screening/Baseline 17.05; for GGT: Screening/Baseline 22; for Bicarbonate: Screening/Baseline 26.05; for Triglyceride: Screening/Baseline 78.33; for Alkaline Phosphatase: Screening/Baseline 97.71; for Glucose: Screening/Baseline 101.24; for Chloride: Screening/Baseline 101.95; for Total Cholesterol: Screening/Baseline 126.43; for Sodium: Screening/Baseline 135.71; for LDH: Screening/Baseline 161.48
Protocol: (§3) Thirty of 80 participants were enrolled starting in January 2019. They were Cystic fibrosis patients ages 18-70 that had acute pulmonary exacerbation or acute respiratory infections that required treatment with IV tobramycin 10 mg/kg/d for 10-21 days. They were randomized into four groups (1:1:1:1) (0, 200, 400, or 600 BID) and treated for 21 days. There were four follow-up visits for safety (adverse events, spirometry, labs), and two follow-up visits for efficacy (audiometric and vestibular). The primary endpoint was a reduction in cochleotoxic change, and the secondary endpoints was a reduction in tinnitus or vertigo severity.

[6] = Study 6.6: ebselen in severe COVID-19; assay type: in vivo, human; settings: 400 or 800 mg BID for 14 days
[7] = Meniere's Disease clinical study: auditory function; assay type: in vivo, human; settings: exceeds reported improvements with corticosteroid treatment
From the text: as §1, §2

[8] = Cystic fibrosis trial (IV tobramycin + SPI-1005 0/200/400/600 BID, 21 days): FEV1; assay type: in vivo, human
Protocol: as §3

[9] = Visit 3, end of tobramycin treatment
[10] = Visit 4, two weeks after end of tobramycin treatment
[11] = Visit 5, four weeks after end of tobramycin treatment

In the case of `O=c1c2ccccc2[se]n1-c1ccccc1` [ebselen, 2-phenyl-1,2-benzisoselenazol-3(2H)-one], the “in vitro inhibition activity against M^pro protease” value [1] is given as “modest in vitro inhibition activity”, the “respiratory status and progression to severe disease” value [2] is given as “effective to improve in respiratory status and prevent progression to severe disease” and the “solubility in aqueous solutions” value [3] is given as “slightly soluble”. For the same compound, the EC50 (SARS-CoV-2; SARS-CoV-2, ebselen 100 nM to 1000 μM in DMSO or EtOH, remdesivir 1 nM to 10 μM, listed as ebselen (EtOH), read-out: EC50, reduction in viral load in Vero E6 cells) was 10.9 µM, the EC50 (SARS-CoV-2; Severe acute respiratory syndrome coronavirus 2, Vero C1008, SARS-CoV-2, ebselen 100 nM to 1000 μM in DMSO or EtOH, remdesivir 1 nM to 10 μM, read-out: EC50, reduction in viral load in Vero E6 cells) was 21.3 µM and the EC50 (SARS-CoV-2; Severe acute respiratory syndrome coronavirus 2, Vero C1008, Vero E6 cells, ebselen added in DMSO, read-out: EC50, inhibition of viral load) was 21 µM. For the same compound, the EC50 (SARS-CoV-2; Severe acute respiratory syndrome coronavirus 2, Vero C1008, Vero E6 cells, ebselen added in EtOH, read-out: EC50, inhibition of viral load) was 11 µM, the “inhibition of viral load (FIGS. 1A-C)” value (SARS-CoV-2; in vitro kidney cell assay (Vero E6 cells)) was “inhibited viral load” and the “interference in MIC assays” value (18 common microbes) was “lack of interference”. For the same compound, the “respiratory status and progression to severe disease” value [4] was “effective to improve in respiratory status and prevent progression to severe disease”, the “Serum Creatinine Mean (SD)” value ([5]; Visit 2, on tobramycin and study treatment, normal 0.49-1.44) was 0.80 (0.22) mg/dl and the “Blood Urea Nitrogen Mean (SD)” value ([5]; Visit 2, on tobramycin and study treatment, normal 5-22) was 14.68 (4.80) mg/dl. The “Bilirubin (Total)” value ([5]; Visit 2) was 0.41, the Creatinine ([5]; Visit 2) was 0.80 and the Magnesium ([5]; Visit 2) was 2.21. It also gave a Phosphorus ([5]; Visit 2) of 3.61, an Albumin ([5]; Visit 2) of 3.87 and a Potassium ([5]; Visit 2) of 4.22. For the same compound, the “Uric Acid” value ([5]; Visit 2) was 4.89, the “Total Protein” value ([5]; Visit 2) was 7.17 and the Calcium ([5]; Visit 2) was 8.86. It also gave a BUN ([5]; Visit 2) of 14.68, an AST/SGOT ([5]; Visit 2) of 26.45 and an ALT/SGPT ([5]; Visit 2) of 31.41. For the same compound, the GGT ([5]; Visit 2) was 25, the Bicarbonate ([5]; Visit 2) was 26.73 and the Triglyceride ([5]; Visit 2) was 114.82. For the same compound, the “Alkaline Phosphatase” value ([5]; Visit 2) was 93.41, the Glucose ([5]; Visit 2) was 120.95 and the Chloride ([5]; Visit 2) was 100.68. The “Total Cholesterol” value ([5]; Visit 2) was 139.68, the Sodium ([5]; Visit 2) was 136.36 and the LDH ([5]; Visit 2) was 165.45. The “Serum Creatinine Mean (SD)” value [5, 9] was 0.78 (0.20) mg/dl, the “Blood Urea Nitrogen Mean (SD)” value [5, 9] was 15.11 (5.56) mg/dl and the “Bilirubin (Total)” value ([5]; Visit 3) was 0.45. The Creatinine ([5]; Visit 3) was 0.78, the Magnesium ([5]; Visit 3) was 2.19 and the Phosphorus ([5]; Visit 3) was 3.68. For the same compound, the Albumin ([5]; Visit 3) was 4.05, the Potassium ([5]; Visit 3) was 4.25 and the “Uric Acid” value ([5]; Visit 3) was 5. For the same compound, the “Total Protein” value ([5]; Visit 3) was 7.29, the Calcium ([5]; Visit 3) was 9.03 and the BUN ([5]; Visit 3) was 15.11. The AST/SGOT ([5]; Visit 3) was 27.58, the ALT/SGPT ([5]; Visit 3) was 35.63 and the GGT ([5]; Visit 3) was 28.32. For the same compound, the Bicarbonate ([5]; Visit 3) was 27.42, the Triglyceride ([5]; Visit 3) was 114.84 and the “Alkaline Phosphatase” value ([5]; Visit 3) was 90.16. For the same compound, the Glucose ([5]; Visit 3) was 102.53, the Chloride ([5]; Visit 3) was 100.68 and the “Total Cholesterol” value ([5]; Visit 3) was 151.89. For the same compound, the Sodium ([5]; Visit 3) was 136.05, the LDH ([5]; Visit 3) was 166.37 and the “Serum Creatinine Mean (SD)” value [5, 10] was 0.78 (0.19) mg/dl. For the same compound, the “Blood Urea Nitrogen Mean (SD)” value [5, 10] was 14.94 (6.66) mg/dl, the “Bilirubin (Total)” value ([5]; Visit 4) was 0.49 and the Creatinine ([5]; Visit 4) was 0.78. It also gave a Magnesium ([5]; Visit 4) of 2.06, a Phosphorus ([5]; Visit 4) of 3.84 and an Albumin ([5]; Visit 4) of 4.08. For the same compound, the Potassium ([5]; Visit 4) was 4.16, the “Uric Acid” value ([5]; Visit 4) was 5.63 and the “Total Protein” value ([5]; Visit 4) was 7.49. It also gave a Calcium ([5]; Visit 4) of 9.12, a BUN ([5]; Visit 4) of 14.94 and an AST/SGOT ([5]; Visit 4) of 18.22. It also gave an ALT/SGPT ([5]; Visit 4) of 20.44, a GGT ([5]; Visit 4) of 23.11 and a Bicarbonate ([5]; Visit 4) of 25.94. For the same compound, the Triglyceride ([5]; Visit 4) was 96.06, the “Alkaline Phosphatase” value ([5]; Visit 4) was 104.50 and the Glucose ([5]; Visit 4) was 132.56. For the same compound, the Chloride ([5]; Visit 4) was 100.94, the “Total Cholesterol” value ([5]; Visit 4) was 134.78 and the Sodium ([5]; Visit 4) was 135.17. For the same compound, the LDH ([5]; Visit 4) was 158.83, the “Serum Creatinine Mean (SD)” value [5, 11] was 0.81 (0.24) mg/dl and the “Blood Urea Nitrogen Mean (SD)” value [5, 11] was 13.45 (6.49) mg/dl. For the same compound, the “Bilirubin (Total)” value ([5]; Visit 5) was 0.46, the Creatinine ([5]; Visit 5) was 0.81 and the Magnesium ([5]; Visit 5) was 2.16. For the same compound, the Phosphorus ([5]; Visit 5) was 3.72, the Albumin ([5]; Visit 5) was 3.98 and the Potassium ([5]; Visit 5) was 4.25. For the same compound, the “Uric Acid” value ([5]; Visit 5) was 5.62, the “Total Protein” value ([5]; Visit 5) was 7.38 and the Calcium ([5]; Visit 5) was 9.11. For the same compound, the BUN ([5]; Visit 5) was 13.45, the AST/SGOT ([5]; Visit 5) was 26.60 and the ALT/SGPT ([5]; Visit 5) was 22.45. The GGT ([5]; Visit 5) was 20.65, the Bicarbonate ([5]; Visit 5) was 26.15 and the Triglyceride ([5]; Visit 5) was 89.95. For the same compound, the “Alkaline Phosphatase” value ([5]; Visit 5) was 101.70, the Glucose ([5]; Visit 5) was 119.05 and the Chloride ([5]; Visit 5) was 101.80. The “Total Cholesterol” value ([5]; Visit 5) was 137.60, the Sodium ([5]; Visit 5) was 136.45 and the LDH ([5]; Visit 5) was 213.58. The nephrotoxicity ([5]; after IV tobramycin and SPI-1005 or placebo treatment) was “no significant nephrotoxicity; also recorded: lack of nephrotoxicity”, the tolerability ([5]; human, in vivo, iv) was “well tolerated” and the “respiratory status / time to clinical improvement (WHO ordinal scale)” value [6] was “effective to improve in respiratory status, and/or reduce time to at least a 2-grade improvement from baseline on the WHO ordinal scale”. The “auditory function (hearing loss, word recognition and tinnitus)” value [7] was “improvement in auditory function; also recorded: improve auditory function”, the “change in lung functioning (FEV1)” value ([8]; 2 and 4 weeks, cystic fibrosis patients on IV tobramycin, versus Part 1 observation study) was “improvement in lung functioning (FEV1) at both 2 and 4 weeks; also recorded: improved relative FEV1% predicted at 2 and 4 weeks” and the “FEV1 score Mean (SD), 2 Week” value ([8]; pooled 0/200/400/600 BID groups, baseline 46.87 (13.68), n 17) was 48.53 (14.57). The “FEV1 score Mean (SD), 4 Week” value ([8]; pooled 0/200/400/600 BID groups, baseline 46.87 (13.68), n 19) was 52.68 (22.99).
